The term microsomal CLint denotes the capacity of the preparation to metabolise the compound, expressed as a volume cleared per time. Usually hepatocyte CLint stands for the rate of metabolic loss divided by the concentration. High values mean faster metabolism, low ones greater metabolic stability. Usually IC50 stands for the midpoint of a concentration-inhibition curve. The Ki is the dissociation constant of the complex between target and ligand, obtained from inhibition or displacement. The term pKb denotes the Kb on a negative log10 scale, so that one unit is a factor of ten.

Data set [1] in a line: Intrinsic clearance in human liver microsomes assessed per mg of protein in presence of NADPH. Background: Liver microsomes are vesicles of endoplasmic reticulum, rich in cytochrome P450 enzymes.
A short description of data set [2]: Intrinsic clearance in human hepatocytes assessed per million cells.
Data set [3] is described as follows: Intrinsic clearance in human liver microsomes assessed per mg of protein by glucuronidation assay in presence of Brijj-58 and UDPGA.
Data set [4] concerns the target Muscarinic acetylcholine receptor M3 (Cavia porcellus, UniProt Q8VH26). The experiment in a line: Antagonist activity at M3 receptor in Dunkin-Hartley guinea pig tracheal strips assessed as inhibition of electrically field-stimulated contractile response after 8 hrs. The format is functional.
Data set [5] addresses Muscarinic acetylcholine receptor M3 (Cavia porcellus) (UniProt Q8VH26). In words: Antagonist activity at M3 receptor in Dunkin-Hartley guinea pig tracheal strips assessed as time taken for electrically field-stimulated contractile response to recover by 25 percent of inhibition at Emax after 2 hrs. The format is functional.
Data set [6] addresses T1, Muscarinic acetylcholine receptor M1 (Homo sapiens, UniProt P11229).
T1 sequence (P11229 whole entry): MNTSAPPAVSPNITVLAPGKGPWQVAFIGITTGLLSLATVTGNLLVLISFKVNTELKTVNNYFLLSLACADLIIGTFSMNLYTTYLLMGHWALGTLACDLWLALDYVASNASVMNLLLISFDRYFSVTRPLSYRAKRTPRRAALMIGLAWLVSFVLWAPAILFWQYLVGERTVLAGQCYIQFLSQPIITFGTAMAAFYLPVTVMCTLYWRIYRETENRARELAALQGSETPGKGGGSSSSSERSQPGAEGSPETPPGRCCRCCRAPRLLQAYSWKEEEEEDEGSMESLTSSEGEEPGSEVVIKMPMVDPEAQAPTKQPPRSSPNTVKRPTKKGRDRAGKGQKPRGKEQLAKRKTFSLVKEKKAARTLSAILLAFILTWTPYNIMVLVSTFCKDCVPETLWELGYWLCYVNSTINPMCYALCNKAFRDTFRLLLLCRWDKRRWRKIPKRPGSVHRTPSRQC
In words: Displacement of [3H]-NMS from human recombinant M1 receptor expressed in CHO cells after 24 hrs by filter binding assay. Type of data set: cell-based. (In general: Displacement assays read how much labelled ligand stays bound in the presence of the test substance.)

In data set [7] the target is T2, Muscarinic acetylcholine receptor M1 (Homo sapiens) (UniProt P11229).
T2 sequence (whole entry): T1 sequence (P11229 whole entry)
The experiment in a line: Displacement of [3H]-NMS from human recombinant M1 receptor expressed in CHO cells assessed as dissociation half life at 100 fold human M1 receptor binding Ki concentration after 24 hrs by dilution-offset filter binding assay. The format is cell-based.

Data set [8] has as its target T3, Muscarinic acetylcholine receptor M4 (Homo sapiens, UniProt P08173).
T3 sequence (P08173 whole entry): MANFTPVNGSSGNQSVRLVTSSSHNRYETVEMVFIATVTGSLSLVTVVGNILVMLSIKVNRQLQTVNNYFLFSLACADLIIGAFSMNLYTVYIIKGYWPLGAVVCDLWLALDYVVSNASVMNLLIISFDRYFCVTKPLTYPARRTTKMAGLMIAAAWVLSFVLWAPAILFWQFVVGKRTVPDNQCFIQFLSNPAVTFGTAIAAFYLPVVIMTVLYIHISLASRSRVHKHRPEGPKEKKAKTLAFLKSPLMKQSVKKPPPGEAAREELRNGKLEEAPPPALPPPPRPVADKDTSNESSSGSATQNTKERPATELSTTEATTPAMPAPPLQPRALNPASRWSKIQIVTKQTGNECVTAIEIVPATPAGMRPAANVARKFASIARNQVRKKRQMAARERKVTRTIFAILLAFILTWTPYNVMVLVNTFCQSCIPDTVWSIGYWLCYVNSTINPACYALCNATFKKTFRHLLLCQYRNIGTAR
In words: Displacement of [3H]-NMS from human recombinant M4 receptor expressed in CHO cells after 24 hrs by filter binding assay. Type of data set: cell-based.

Data set [9] deals with T4, Muscarinic acetylcholine receptor M4 (Homo sapiens) (UniProt P08173).
T4 sequence (whole entry): T3 sequence (P08173 whole entry)
The experiment in a line: Displacement of [3H]-NMS from human recombinant M4 receptor expressed in CHO cells assessed as dissociation half life at 100 fold human M4 receptor binding Ki concentration after 24 hrs by dilution-offset filter binding assay. The format is cell-based.

Data set [10] deals with T5, Muscarinic acetylcholine receptor M5 (Homo sapiens, UniProt P08912).
T5 sequence (P08912 whole entry): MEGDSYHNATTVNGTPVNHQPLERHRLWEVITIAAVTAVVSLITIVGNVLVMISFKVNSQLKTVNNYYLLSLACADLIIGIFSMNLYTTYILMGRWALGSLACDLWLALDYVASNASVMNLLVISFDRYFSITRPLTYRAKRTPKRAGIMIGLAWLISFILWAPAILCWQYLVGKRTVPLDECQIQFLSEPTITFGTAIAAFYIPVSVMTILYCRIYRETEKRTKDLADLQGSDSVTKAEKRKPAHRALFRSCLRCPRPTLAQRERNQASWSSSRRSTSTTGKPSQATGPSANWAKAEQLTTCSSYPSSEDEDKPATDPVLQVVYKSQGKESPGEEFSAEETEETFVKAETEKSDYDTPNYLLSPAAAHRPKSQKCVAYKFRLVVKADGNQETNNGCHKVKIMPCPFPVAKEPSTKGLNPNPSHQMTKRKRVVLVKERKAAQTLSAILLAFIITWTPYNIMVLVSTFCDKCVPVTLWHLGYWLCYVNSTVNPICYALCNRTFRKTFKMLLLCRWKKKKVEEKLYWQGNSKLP
The experiment in a line: Displacement of [3H]-NMS from human recombinant M5 receptor expressed in CHO cells after 24 hrs by filter binding assay. The format is cell-based.

In data set [11] the test system is Canis familiaris. In words: Bronchodilator activity in Beagle dog assessed as inhibition of methacholine-induced lung resistance after cumulative intratracheal administration in micelle solution at hourly intervals challenged each time 1 hr later with methacholine. Type of data set: functional, Canis lupus familiaris.
The subject of data set [12] is Canis familiaris. The experiment in a line: Bronchodilator activity in methacholine challenged Beagle dog assessed as intrinsic duration of action at 10 ug intratracheally administered as single dose in micelle solution. The format is functional, Canis lupus familiaris.
Data set [13] concerns Canis familiaris. The experiment in a line: Toxicity in methacholine challenged Beagle dog assessed effect on heart rate at 3 ug intratracheally administered as single dose in micelle solution. Type of data set: organism-based, Canis lupus familiaris. The settings on record: in vivo, inhaled_or_intranasal.
The target of data set [14] is T6, Muscarinic acetylcholine receptor M3 (Homo sapiens, UniProt P20309). The settings on record: CHO.
Data set [15] addresses T6, Muscarinic acetylcholine receptor M3.

T6 sequence (P20309 whole entry, looked up): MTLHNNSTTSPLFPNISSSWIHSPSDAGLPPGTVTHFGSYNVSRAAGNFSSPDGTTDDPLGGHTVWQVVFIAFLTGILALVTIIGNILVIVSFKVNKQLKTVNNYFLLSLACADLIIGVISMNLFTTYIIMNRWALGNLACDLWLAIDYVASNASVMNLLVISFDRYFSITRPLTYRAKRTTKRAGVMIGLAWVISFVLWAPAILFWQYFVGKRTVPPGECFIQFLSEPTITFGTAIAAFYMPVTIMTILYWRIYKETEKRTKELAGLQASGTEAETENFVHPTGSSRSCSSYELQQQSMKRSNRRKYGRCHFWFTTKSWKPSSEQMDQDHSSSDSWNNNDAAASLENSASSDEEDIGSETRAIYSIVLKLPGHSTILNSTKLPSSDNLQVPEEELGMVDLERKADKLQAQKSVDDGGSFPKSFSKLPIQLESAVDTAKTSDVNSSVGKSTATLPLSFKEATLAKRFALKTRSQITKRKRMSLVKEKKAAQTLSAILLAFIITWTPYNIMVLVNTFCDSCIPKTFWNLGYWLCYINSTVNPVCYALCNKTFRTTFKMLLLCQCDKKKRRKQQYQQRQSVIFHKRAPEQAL
Muscarinic acetylcholine receptor M3 (Cavia porcellus, UniProt Q8VH26), sequence (Q8VH26 whole entry): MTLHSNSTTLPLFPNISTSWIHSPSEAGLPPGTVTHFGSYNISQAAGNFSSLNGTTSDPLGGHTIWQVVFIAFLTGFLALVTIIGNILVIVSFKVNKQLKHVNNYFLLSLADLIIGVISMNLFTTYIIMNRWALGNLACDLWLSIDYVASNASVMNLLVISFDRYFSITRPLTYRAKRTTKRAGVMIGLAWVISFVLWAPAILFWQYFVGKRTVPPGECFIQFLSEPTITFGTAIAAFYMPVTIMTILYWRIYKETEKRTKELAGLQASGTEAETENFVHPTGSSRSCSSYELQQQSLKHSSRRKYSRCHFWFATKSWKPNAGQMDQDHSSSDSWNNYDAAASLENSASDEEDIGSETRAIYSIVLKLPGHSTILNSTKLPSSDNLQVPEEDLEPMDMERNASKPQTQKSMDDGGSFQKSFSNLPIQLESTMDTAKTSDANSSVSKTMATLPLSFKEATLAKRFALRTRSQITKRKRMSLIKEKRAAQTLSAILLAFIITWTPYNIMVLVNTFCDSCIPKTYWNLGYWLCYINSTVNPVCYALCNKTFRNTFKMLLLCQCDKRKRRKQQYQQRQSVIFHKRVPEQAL
Muscarinic acetylcholine receptor M3 (Cavia porcellus), sequence (Q8VH26 1-587): as the sequence (Q8VH26 whole entry) above

Turning to `CC(C)(CCC(C(N)=O)(c1ccccc1)c1ccccc1)N1CC(Oc2cccc(O)c2)C1` [PF-03635659], the microsomal CLint in [1] is greater than 282 µL/min/mg; in data set [3], 221 µL/min/mg. Further, the hepatocyte CLint in data set [2] was found to be 96 µL/min/1e6 cells. Further, the concentration for half-maximal inhibition (IC50) in data set [4] is 1.53 nM. Moreover, the TIME in data set [5] was greater than 16 h. Also, the Ki in data set [6] was 0.115 nM; in data set [8], 0.115 nM; in [10], 0.169 nM. Moreover, the T1/2 was 14 h in [7], 9.78 h in data set [9] and greater than 24 h in data set [14]. Further, in data set [11], the ID50 was found to be 3 µg. Besides, in data set [12], the Time was found to be 32 h. In addition, the Activity result in data set [13] is reported as “Non-toxic”. In addition, the pKb in data set [15] was 9.6.

For the origin of these results see ChEMBL document CHEMBL1909511, “Inhalation by design: novel tertiary amine muscarinic M₃ receptor antagonists with slow off-rate binding kinetics for inhaled once-daily treatment of chronic obstructive pulmonary disease” (J Med Chem, 2011).
